Source: US20080255041A1, “Treatment of annulus fibrosis defects” (EBI, L.P., priority 2007, published 2008)

System: annulus fibrosis of the defective disc
Assay: Injection of the composition into the annulus fibrosis of a patient with degenerative disc disease
Assay type: in vivo, human
Conditions: patient with transverse annulus fibrosis tear between fifth lumbar and sacrum; F2A4-K—NS in hyaluronic acid carrier injected by syringe
Source text: A syringe containing the synthetic molecule F2A4-K—NS and a hyaluronic acid carrier is used to inject the composition into the annulus fibrosis of the defective disc. […] In the above example, collagen, heparin sulfate or propylene glycol is substituted for hyaluronic acid, to form gel carriers, with substantially similar results.

Q: How did the “angiogenesis at the site of the annulus fibrosis defect” value turn out when “H—YRSRKYSSWYVALKRK(H—YRSKYSSWYVALKR)-Ahx-Ahx-Ahx-RKRLDRIAR—NH2 [F2A4-K—NS]” was run?
A: promotes angiogenesis

Q: And the “degeneration of the disc / closure of the annulus fibrosis tear” value?
A: prevents further degeneration of the disc
